Data taken from patent publication US8993542B2, “Methods of treating viral infections” (priority 2008, dated 2015).
Where two headings read alike, the source gives them in different places.

How the values were obtained:
[1] = Toxicokinetics and 7-day toxicity after oral administration of CMX157 to rats; assay type: in vivo; settings: for AUC0-24 / Cmax / Tmax / AUC(0-t) / AUC0-∞ / t1/2elim: rat plasma; for AUC(0-t): read-out: AUC0-24
HIV = assay: microbe, parasite or virus in culture; assay type: cell-based
HIV-1IIIB = assay: TCID50 determination of drug-treated HIV-1IIIB; assay type: cell-based; design: TCID50, XTT Endpoint / TCID50, RT Endpoint / TCID50, P24 Endpoint: unit not given here; settings: 500 nM

CCCCCCCCCCCCCCCCOCCCOP(=O)(O)CO[C@H](C)Cn1cnc2c(N)ncnc21 [CMX157, Hexadecyloxypropyl-9-R-[2-(Phosphonomethoxy)Propyl]-Adenine]
AUC0-24 ([1]; oral CMX157 10 mg/kg, day 1): 441.7 ng·h/mL | Cmax ([1]; oral CMX157 10 mg/kg, day 1): 84.85 ng/mL | Tmax ([1]; oral CMX157 10 mg/kg, day 1): 0.5 h | Cmax ([1]; oral CMX157 10 mg/kg, day 7): 110.90 ng/mL | Tmax ([1]; oral CMX157 10 mg/kg, day 7): 0.5 h | AUC(0-t) ([1]; oral CMX157 10 mg/kg, day 7): 435 ng·h/mL | AUC0-24 ([1]; oral CMX157 30 mg/kg, day 1): 1,832.8 ng · h/ml | Cmax ([1]; oral CMX157 30 mg/kg, day 1): 379.00 ng/mL | Tmax ([1]; oral CMX157 30 mg/kg, day 1): 2.0 h | Cmax ([1]; oral CMX157 30 mg/kg, day 7): 202.50 ng/mL | Tmax ([1]; oral CMX157 30 mg/kg, day 7): 1.0 h | AUC(0-t) ([1]; oral CMX157 30 mg/kg, day 7): 1540 ng·h/mL | AUC0-24 ([1]; oral CMX157 100 mg/kg, day 1): 5,408 ng · h/ml | AUC0-∞ ([1]; oral CMX157 100 mg/kg, day 1): 5,429.8 ng · h/ml | Cmax ([1]; oral CMX157 100 mg/kg, day 1): 905.00 ng/mL | Tmax ([1]; oral CMX157 100 mg/kg, day 1): 2.0 h | t1/2elim ([1]; oral CMX157 100 mg/kg, day 1): 2.5 h | AUC0-∞ ([1]; oral CMX157 100 mg/kg, day 7): 8,050.6 ng · h/ml | Cmax ([1]; oral CMX157 100 mg/kg, day 7): 685.50 ng/mL | Tmax ([1]; oral CMX157 100 mg/kg, day 7): 2.0 h | t1/2elim ([1]; oral CMX157 100 mg/kg, day 7): 1.6 h | AUC(0-t) ([1]; oral CMX157 100 mg/kg, day 7): 8050 ng·h/mL | no-observed-adverse-effect level ([1]; rats, 7 days, highest dose tested): up to 100 mg/kg/day | IC50 (HIV; Human immunodeficiency virus 1, PANEL 1, WT): 1.72 nM | IC50 (HIV; Human immunodeficiency virus 1, PANEL 2, WT): 1.61 nM | IC50 (HIV; Human immunodeficiency virus 1, PANEL 3, 6 TAMs, no 184): 8.5 nM | IC50 (HIV; Human immunodeficiency virus 1, PANEL 6, 6 TAMs + 184): 5.21 nM | IC50 (HIV; Human immunodeficiency virus 1, PANEL 7, 184V): 1.36 nM | IC50 (HIV; Human immunodeficiency virus 1, PANEL 9, 69ins, no 184): 57.4 nM | IC50 (HIV; Human immunodeficiency virus 1, PANEL 12, 69ins + 184): 11.2 nM | IC50 (HIV; Human immunodeficiency virus 1, PANEL 14, 65R, no 184): 3.6 nM | IC50 (HIV; Human immunodeficiency virus 1, PANEL 15, 65R + 184V): 2.71 nM | IC50 (HIV; Human immunodeficiency virus 1, PANEL 17, L74V): 1.23 nM | IC50 (HIV; Human immunodeficiency virus 1, PANEL 19, L74V + M184V): 0.66 nM | IC50 (HIV; Human immunodeficiency virus 1, PANEL 26, 151M, no 184): 3.68 nM | IC50 (HIV; Human immunodeficiency virus 1, PANEL 28, 151M + 184): 3.05 nM | IC50 (HIV; Human immunodeficiency virus 1, PANEL 29, L74V − SDM): 1.48 nM | IC50 (HIV; Human immunodeficiency virus 1, PANEL 30, M184V − SDM): 1.15 nM | IC50 (HIV; Human immunodeficiency virus 1, PANEL 31, K65R − SDM): 4.73 nM | IC50 (HIV; Human immunodeficiency virus 1, PANEL 33, T215Y): 5 nM | IC50 (HIV; Human immunodeficiency virus 1, PANEL 34, T215Y + M184V): 1.67 nM | IC50 (HIV; Human immunodeficiency virus 1, PANEL 35, M41L + T215Y): 3.91 nM | IC50 (HIV; Human immunodeficiency virus 1, PANEL 37, M41L + T215Y + M184V): 2.88 nM | IC50 (HIV; Human immunodeficiency virus 1, PANEL 38, M41L + L210W + T215Y): 5.96 nM | IC50 (HIV; Human immunodeficiency virus 1, PANEL 39, M41L + L210W + T215Y): 6.56 nM | IC50 (HIV; Human immunodeficiency virus 1, PANEL 40, M41L + L210W + T215Y + M184V): 1.89 nM | IC50 (HIV; Human immunodeficiency virus 1, PANEL 41, M41L + L210W + T215Y + M184V): 2.5 nM | IC50 (HIV; Human immunodeficiency virus 1, PANEL 42, D67N + K70R): 5.61 nM | IC50 (HIV; Human immunodeficiency virus 1, PANEL 44, D67N + K70R + T215F + K219E + M184V): 1.92 nM | IC50 (HIV; Human immunodeficiency virus 1, PANEL 45, L210W + T215Y): 2.79 nM | IC50 (HIV; Human immunodeficiency virus 1, PANEL 46, D67N + K70E): 2.12 nM | IC50 (HIV; Human immunodeficiency virus 1, PANEL 47, D67N + K70E + M184V): 1.45 nM | IC50 (HIV; Human immunodeficiency virus 1, PANEL 48, K70E + M184V): 1.32 nM | IC50 (HIV; Human immunodeficiency virus 1, read-out: IC50s against NRTI resistant HIV, range over panel): 1.2 to 57 nM | Fold Decrease From VC, P24 Endpoint (HIV-1IIIB; compound removal at 1 minute): (8.0) Fold | Fold Decrease From VC, RT Endpoint (HIV-1IIIB; compound removal at 1 minute): (5.2) Fold | Fold Decrease From VC, XTT Endpoint (HIV-1IIIB; compound removal at 1 minute): (2.2) Fold | TCID50, P24 Endpoint (HIV-1IIIB; compound removal at 1 minute): 4529 | TCID50, RT Endpoint (HIV-1IIIB; compound removal at 1 minute): 25588 | TCID50, XTT Endpoint (HIV-1IIIB; compound removal at 1 minute): 2014 | Fold Decrease From VC, P24 Endpoint (HIV-1IIIB; compound removal at 15 minutes): (5.7) Fold | Fold Decrease From VC, RT Endpoint (HIV-1IIIB; compound removal at 15 minutes): (3.6) Fold | Fold Decrease From VC, XTT Endpoint (HIV-1IIIB; compound removal at 15 minutes): (4.0) Fold | TCID50, P24 Endpoint (HIV-1IIIB; compound removal at 15 minutes): 6398 | TCID50, RT Endpoint (HIV-1IIIB; compound removal at 15 minutes): 18115 | TCID50, XTT Endpoint (HIV-1IIIB; compound removal at 15 minutes): 1132 | Fold Decrease From VC, P24 Endpoint (HIV-1IIIB; compound removal at 30 minutes): (2.0) Fold | Fold Decrease From VC, RT Endpoint (HIV-1IIIB; compound removal at 30 minutes): (2.8) Fold | Fold Decrease From VC, XTT Endpoint (HIV-1IIIB; compound removal at 30 minutes): (2.0) Fold | TCID50, P24 Endpoint (HIV-1IIIB; compound removal at 30 minutes): 18115 | TCID50, RT Endpoint (HIV-1IIIB; compound removal at 30 minutes): 22805 | TCID50, XTT Endpoint (HIV-1IIIB; compound removal at 30 minutes): 2014 | Fold Decrease From VC, P24 Endpoint (HIV-1IIIB; compound removal at 60 minutes): (4.0) Fold | Fold Decrease From VC, RT Endpoint (HIV-1IIIB; compound removal at 60 minutes): (3.4) Fold | Fold Decrease From VC, XTT Endpoint (HIV-1IIIB; compound removal at 60 minutes): (2.5) Fold | TCID50, P24 Endpoint (HIV-1IIIB; compound removal at 60 minutes): 9058 | TCID50, RT Endpoint (HIV-1IIIB; compound removal at 60 minutes): 25588 | TCID50, XTT Endpoint (HIV-1IIIB; compound removal at 60 minutes): 1600 | Fold Decrease From VC, P24 Endpoint (HIV-1IIIB; compound removal at 120 minute): (5.7) Fold
